Paper PMC6272564, “Synthesis and Biological Evaluation of Novel 6-Hydroxy-benzo[d][1,3]oxathiol-2-one Schiff Bases as Potential Anticancer Agents” (Molecules, 2015)

Key:
SKMEL-19 = assay: MTT cytotoxicity assay, SKMEL-19 melanoma cells; type: cell-based, human; details: IC50 with 95% confidence interval, triplicate, 72 h incubation
Experimental: (§1) In vitro anticancer activity of compounds 2, 3 and 4a–r was evaluated against three human cancer cell lines in comparison to doxorubicin by using MTT assay.
(§2) Compounds (0.312–20 μM) were tested for cytotoxic activity against three cancer cell lines: ACP-03 (gastric), SKMEL-19 (melanoma) and HCT-116 (colon). All cell lines were maintained in DMEM medium supplemented with 10% fetal bovine serum, 2 mM glutamine, 100 U/mL penicillin, and […] streptomycin at 37 °C with 5% CO2. Each compound was dissolved in DMSO and diluted with water to obtain a concentration of 20 μM. They were incubated with the cells for 72 h. The negative control received the same amount of DMSO (0.005% in the highest concentration). Doxorrubicin was used as a positive control. The cell viability was determined by reduction of the yellow dye 3-(4,5-dimethyl-2-thiazol)-2,5-diphenyl-2H-tetrazolium bromide (MTT) to a blue formazan product after 48 h as described by Mosmann.

[1] = Cell membrane disruption (hemolysis) of mouse erythrocytes; type: cell-based; details: mouse erythrocytes (2% suspension), 2% mouse erythrocyte suspension, room temperature, tested 1.5 to 200 μg/mL, lysis 50% of Triton X-100
Experimental: The mechanical stability of red blood cells is a good parameter for in vitro screening of unspecific cytotoxicity, since the membrane of erythrocyte can suffer significant changes in its structural properties. In order to verify whether the cytotoxicity of the compounds was linked to the membrane disruption, the ability to induce lysis of mouse erythrocytes was investigated, and no membrane damage was found for all tested compounds (EC50 > 200 μg/mL).
The test was performed in 96-well plates using a 2% mouse erythrocyte suspension in 0.85% NaCl containing 10 mM CaCl2. The compounds diluted as mentioned above were tested at concentrations ranging from 1.5 to 200 μg/mL. After incubation at room temperature for 30 min and centrifugation, the supernatant was removed and the liberated hemoglobin was measured spectrophotometrically at 540 nm. DMSO was used as a negative control and Triton X-100 (1%) was used as positive control. EC50 is the calculated effective dose that induced lysis on 50% that of the Triton X-100 [37].

HCT-116 = assay: MTT cytotoxicity assay, HCT-116 colon cancer cells; type: cell-based; details: Homo sapiens, IC50 with 95% confidence interval, triplicate, 72 h incubation
Experimental: as §1, §2

ACP-03 = assay: MTT cytotoxicity assay, ACP-03 gastric cancer cells; type: cell-based, human; details: IC50 with 95% confidence interval, triplicate, 72 h incubation
Experimental: as §1, §2

SMILES	melting point	IC50 (SKMEL-19; Homo sapiens, SK-MEL19, 72 h) [µM]	EC50 at 30 min [1] [µg/mL]	IC50 (HCT-116) [µM]	IC50 (ACP-03; Homo sapiens, 72 h) [µM]	IC50 (ACP-03) [µM]	IC50 (SKMEL-19) [µM]
O=c1oc2cc(O)c([N+](=O)[O-])cc2s1 [Compound 2, 6-Hydroxy-5-nitrobenzo[d][1,3]oxathiol-2-one]	180 to 182 °C	> 10	> 200	> 10	> 10		
Nc1cc2sc(=O)oc2cc1O [Compound 3, 5-Amino-6-hydroxybenzo[d][1,3]oxathiol-2-one]	194 to 195 °C	> 10	> 200	> 10	> 10		
N#Cc1ccc(/C=N/c2cc3sc(=O)oc3cc2O)cc1 [Compound 4a, (E)-4-((6-Hydroxy-2-oxobenzo[d][1,3]oxathiol-5-ylimino)methyl)benzonitrile]	261 to 263 °C	> 10	> 200	> 10	> 10		
O=c1oc2cc(O)c(/N=C/c3ccc([N+](=O)[O-])cc3)cc2s1 [Compound 4b, (E)-6-Hydroxy-5-(4-nitrobenzylideneamino)benzo[d][1,3]oxathiol-2-one]	223 to 224 °C	> 10	> 200	> 10	< 5	4.8	
O=c1oc2cc(O)c(/N=C/c3cccc([N+](=O)[O-])c3)cc2s1 [Compound 4c, (E)-6-Hydroxy-5-(3-nitrobenzylideneamino)benzo[d][1,3]oxathiol-2-one]	220 to 222 °C	> 10	> 200	> 10	> 10		
O=c1oc2cc(O)c(/N=C/c3ccc(Br)cc3)cc2s1 [Compound 4d, (E)-5-(4-Bromobenzylideneamino)-6-hydroxybenzo[d][1,3]oxathiol-2-one]	211 to 213 °C	> 10	> 200	> 10	> 10		
O=c1oc2cc(O)c(/N=C/c3cccc(Br)c3)cc2s1 [Compound 4e, (E)-5-(3-Bromobenzylideneamino)-6-hydroxybenzo[d][1,3]oxathiol-2-one]	179 to 180 °C	> 10	> 200	> 10	> 10		
O=c1oc2cc(O)c(/N=C/c3ccc(Cl)cc3)cc2s1 [Compound 4f, (E)-5-(4-Chlorobenzylideneamino)-6-hydroxybenzo[d][1,3]oxathiol-2-one]	210 to 212 °C	> 10	> 200	> 10	> 10		
O=c1oc2cc(O)c(/N=C/c3ccc(Cl)cc3Cl)cc2s1 [Compound 4g, (E)-5-(2,4-Dichlorobenzylideneamino)-6-hydroxybenzo[d][1,3]oxathiol-2-one]	221 to 223 °C	> 10	> 200	> 10	> 10		
O=c1oc2cc(O)c(/N=C/c3ccccc3)cc2s1 [Compound 4h, (E)-5-(Benzylideneamino)-6-hydroxybenzo[d][1,3]oxathiol-2-one]	232 to 233 °C	> 10	> 200	> 10	> 10		
CN(C)c1ccc(/C=N/c2cc3sc(=O)oc3cc2O)cc1 [Compound 4i, (E)-5-(4-(Dimethylamino)benzylideneamino)-6-hydroxybenzo[d][1,3]oxathiol-2-one]	199 to 201 °C	> 10	> 200	> 10	> 10		
COc1ccc(/C=N/c2cc3sc(=O)oc3cc2O)cc1 [Compound 4j, (E)-6-Hydroxy-5-(4-methoxybenzylideneamino)benzo[d][1,3]oxathiol-2-one]	177 to 178 °C	> 10	> 200	> 10	> 10		
O=c1oc2cc(O)c(/N=C/c3ccccc3O)cc2s1 [Compound 4k, (E)-6-Hydroxy-5-(2-hydroxybenzylideneamino)benzo[d][1,3]oxathiol-2-one]	252 to 253 °C	> 10	> 200	> 10	> 10		
O=c1oc2cc(O)c(/N=C/c3cccc(O)c3O)cc2s1 [Compound 4l, (E)-5-(2,3-Dihydroxybenzylideneamino)-6-hydroxybenzo[d][1,3]oxathiol-2-one]	244 to 246 °C	> 10	> 200	> 10	> 10		
O=c1oc2cc(O)c(/N=C/c3ccc(O)cc3O)cc2s1 [Compound 4m, (E)-5-(2,4-Dihydroxybenzylideneamino)-6-hydroxybenzo[d][1,3]oxathiol-2-one]	284 to 285 °C (dec.)	9.4	> 200	> 10	> 10		
O=c1oc2cc(O)c(/N=C/c3cc(O)ccc3O)cc2s1 [Compound 4n, (E)-5-(2,5-Dihydroxybenzylideneamino)-6-hydroxybenzo[d][1,3]oxathiol-2-one]	261 to 263 °C	5.6	> 200	> 10	> 10		
O=c1oc2cc(O)c(/N=C/c3cc([N+](=O)[O-])ccc3O)cc2s1 [Compound 4o, (E)-6-Hydroxy-5-(2-hydroxy-5-nitrobenzylideneamino)benzo[d][1,3]oxathiol-2-one]	293 to 294 °C	< 5	> 200	> 10	> 10		2.8
O=c1oc2cc(O)c(/N=C/c3cc(Br)ccc3O)cc2s1 [Compound 4p, (E)-5-(5-Bromo-2-hydroxybenzylideneamino)-6-hydroxybenzo[d][1,3]oxathiol-2-one]	250 to 252 °C	> 10	> 200	> 10	> 10		
O=c1oc2cc(O)c(/N=C/c3ccc(-c4ccccn4)cc3)cc2s1 [Compound 4q, (E)-6-Hydroxy-5-(4-(pyridin-2-yl)benzylideneamino)benzo[d][1,3]oxathiol-2-one]	201 to 203 °C	> 10	> 200	> 10	> 10		
O=c1oc2cc(O)c(/N=C/c3ccc4c(c3)OCO4)cc2s1 [Compound 4r, (E)-5-(Benzo[d][1,3]dioxol-5-ylmethyleneamino)-6-hydroxybenzo[d][1,3]oxathiol-2-one]	232 to 233 °C	> 10	> 200	> 10	> 10		
COc1cccc2c1C(=O)c1c(O)c3c(c(O)c1C2=O)C[C@@](O)(C(=O)CO)C[C@@H]3O[C@H]1C[C@H](N)[C@H](O)[C@H](C)O1 [Dox, Doxorubicin, reference compound]		0.045	> 200	0.1	0.274		
